Experimental data taken from US7670613B2, “Androgen modulators” (Pfizer Inc., priority 2004, dated 2010).
Changes are numbered by the printed parent chain.

Biological target: T1, hAR (Homo sapiens, UniProt P10275)
T1 construct: made in house; host or cells: baculovirus/Sf9 insect cells
T1 sequence (P10275 1-920): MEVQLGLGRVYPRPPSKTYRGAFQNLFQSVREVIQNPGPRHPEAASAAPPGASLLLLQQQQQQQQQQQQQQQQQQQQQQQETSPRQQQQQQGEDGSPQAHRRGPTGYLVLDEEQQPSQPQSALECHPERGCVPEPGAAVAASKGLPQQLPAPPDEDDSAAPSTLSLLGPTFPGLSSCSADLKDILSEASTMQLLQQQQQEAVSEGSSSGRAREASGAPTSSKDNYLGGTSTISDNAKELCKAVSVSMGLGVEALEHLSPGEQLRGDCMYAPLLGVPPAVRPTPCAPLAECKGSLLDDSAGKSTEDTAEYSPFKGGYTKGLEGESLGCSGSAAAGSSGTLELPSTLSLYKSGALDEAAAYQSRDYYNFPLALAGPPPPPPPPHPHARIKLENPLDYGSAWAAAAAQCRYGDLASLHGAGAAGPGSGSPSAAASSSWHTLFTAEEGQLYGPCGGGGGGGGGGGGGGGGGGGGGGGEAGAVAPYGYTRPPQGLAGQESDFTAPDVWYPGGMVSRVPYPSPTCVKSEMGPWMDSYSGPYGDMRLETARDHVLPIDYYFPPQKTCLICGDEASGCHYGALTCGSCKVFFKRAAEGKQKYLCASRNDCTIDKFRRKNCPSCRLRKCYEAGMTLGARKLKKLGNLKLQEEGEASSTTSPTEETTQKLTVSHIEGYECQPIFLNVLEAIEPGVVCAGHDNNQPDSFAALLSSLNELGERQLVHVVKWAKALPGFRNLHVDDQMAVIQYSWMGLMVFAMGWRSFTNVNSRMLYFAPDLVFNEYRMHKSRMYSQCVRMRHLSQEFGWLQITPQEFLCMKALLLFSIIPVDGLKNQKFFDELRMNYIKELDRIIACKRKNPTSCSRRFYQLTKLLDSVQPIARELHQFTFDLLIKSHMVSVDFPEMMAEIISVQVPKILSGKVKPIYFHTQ
Assay: Competitive binding analysis on baculovirus/Sf9 generated hAR extracts with 3H-DHT tracer
Conditions: AR Binding IC50, hAR extract, 1 nM 3H-DHT, one hour at 4° C.; mean of multiple tests
Protocol: The description below describes how the assay was carried out.
Competitive binding analysis was performed on baculovirus/Sf9 generated hAR extracts in the presence or absence of different concentrations of test agent and a fixed concentration of ^3H-dihydrotestosterone (^3H-DHT) as tracer. This binding assay method is a modification of a protocol previously described (Liao S., et. al. J. Steroid Biochem. 20:11-17 1984). Briefly, progressively decreasing concentrations of compounds are incubated in the presence of hAR extract (Chang et al. P.N.A.S. Vol. 89, pp. […], 1992), hydroxylapatite, and 1 nM ^3H-DHT for one hour at 4° C. Subsequently, the binding reactions are washed three times to completely remove excess unbound ^3H-DHT. hAR bound ^3H-DHT levels are determined in the presence of compounds (i.e. competitive binding) and compared to levels bound when no competitor is present (i.e. maximum binding). Compound binding affinity to the hAR is expressed as the concentration of compound at which one half of the maximum binding is inhibited.

Compound	IC50 [nM]
CCC1CCCCC1Oc1ccc(C#N)c(Cl)c1 (stereo not shown) [Example 27, 2-Chloro-4-(2-ethyl-cyclohexyloxy)-benzonitrile]	30
C[C@@H]1CCCC[C@@H]1Oc1ccc(C#N)c(Cl)c1 [Example 40, (1S,2R)-2-Chloro-4-(2-methyl-cyclohexyloxy)-benzonitrile]	31
C[C@H]1CCCC[C@@H]1Oc1ccc(C#N)c(Cl)c1 [Example 41, (1S,2S)-2-Chloro-4-(2-methyl-cyclohexyloxy)-benzonitrile]	18
N#Cc1ccc(OC2CCCC2)cc1Cl [Example 46, 2-Chloro-4-cyclopentyloxy-benzonitrile]	49
C=C(C)[C@H]1CC[C@H](C)[C@@H](Oc2ccc(C#N)c(Cl)c2)C1 [Example 49, (1S,2S,5S)-2-Chloro-4-(5-isopropenyl-2-methyl-cyclohexyloxy)-benzonitrile]	10
N#Cc1ccc(O[C@@H]2CCCC[C@H]2C#N)cc1Cl [Example 50, (1R,2S)-2-Chloro-4-(2-cyano-cyclohexyloxy)-benzonitrile]	17
CC1CCCC(Oc2ccc(C#N)c(Cl)c2)C1C (stereo not shown) [Example 52, 2-Chloro-4-(2,3-dimethyl-cyclohexyloxy)-benzonitrile]	72
CC1CCCC(C)C1Oc1ccc(C#N)c(Cl)c1 (stereo not shown) [Example 53, 2-Chloro-4-(2,6-dimethyl-cyclohexyloxy)-benzonitrile]	33
N#Cc1ccc(O[C@H]2CCCC[C@@H]2c2ccccc2)cc1Cl [Example 55, (1S,2R)-2-Chloro-4-(2-phenyl-cyclohexyloxy)-benzonitrile]	265
N#Cc1ccc(OC2CC3CCC2C3)cc1Cl (stereo not shown) [Example 62, 4-(Bicyclo[2.2.1]hept-2-yloxy)-2-chloro-benzonitrile]	46
C[C@H]1CCC[C@@H]1Oc1ccc(C#N)c(Cl)c1 [Example 67, (1S,2S)-2-Chloro-4-(2-methyl-cyclopentyloxy)-benzonitrile]	44

Same assay, conditions: hAR extract, 1 nM 3H-DHT, one hour at 4° C.; mean of multiple tests; read-out: AR Binding IC50

Compound	IC50 [nM]
N#Cc1ccc(OC2CCCC(O)C2)cc1Cl (stereo not shown) [Example 26, 2-Chloro-4-(3-hydroxy-cyclohexyloxy)-benzonitrile]	404
C[C@H]1CC[C@@H](Oc2ccc(C#N)c(Cl)c2)CC1 [Example 31, 2-Chloro-4-(4-cis-methyl-cyclohexyloxy)-benzonitrile]	212
N#Cc1ccc(OC2CCCCCC2)c(Cl)c1 [Example 43, 3-Chloro-4-cycloheptyloxy-benzonitrile]	289
N#Cc1ccc(OC2CCCCC2)cc1Cl [Example 45, 2-Chloro-4-cyclohexyloxy-benzonitrile]	196
CC(C)[C@H]1CC[C@H](C)C[C@@H]1Oc1ccc(C#N)c(Cl)c1 [Example 47, (1S,2R,5S)-2-Chloro-4-(2-isopropyl-5methyl-cyclohexyloxy)-benzonitrile]	107
N#Cc1ccc(OC2CCC2)cc1Cl [Example 68, 2-Chloro-4-cyclobutyloxy-benzonitrile]	297
C=CCO[C@H]1CCCC[C@@H]1Oc1ccc(C#N)c(C(F)(F)F)c1 [Example 71, (1S,2S)-4-(2-Allyloxy-cyclohexyloxy)-2-trifluoromethyl-benzonitrile]	374

Biological target: T2, androgen receptor (Homo sapiens, UniProt P10275, Q868H)
T2 construct: a human breast tumor cell line expressing androgen receptor; endogenous in cells; host or cells: MDA-MB453-MMTV clone 54-19 (only the MMTV-luciferase reporter was transfected)
T2 sequence (P10275 1-920 Q868H): T1 sequence (P10275 1-920) with Q868H
Assay: AR antagonist cell assay (MDA-MB453-MMTV clone 54-19, luciferase reporter)
Type: cell-based
Conditions: AR Cell IC50, MDA-MB453-MMTV clone 54-19 cells, 100 pM DHT, 17 hr; mean of multiple tests
Protocol: The compounds ability to antagonize the effects of androgen on the androgen receptor were determined in a whole cell assay as described immediately below.
Experimental Procedure for AR Antagonist Cell Assay
This cell line is a stable transfected cell line with MDA-MB453 cell background (a human breast tumor cell line expressing androgen receptor). A MMTV minimal promoter containing ARE was first cloned in front of a firefly luciferase reporter gene. Then the cascade was cloned into transfection vector pUV120puro. Electroporation method was used for transfecting MDA-MB-453 cell. Puromycin resistant stable cell line was selected.
Cell Culture Media and Reagents:
Culture medium: DMEM (high glucose, Gibco cat #: 11960-044), 10% FBS, and 1% L-glutamine
Plating medium: DMEM (phenol red free), 10% charcoal treated HyClone serum, 1% L-glutamine
Assay medium: DMEM (phenol red free), 1% charcoal treated HyClone serum, 1% L-glutamine, and 1% penicillin/streptomycin
3× luciferase buffer: 2% beta-mercaptoethanol, 0.6% ATP, 0.0135% luciferine in cell lysis buffer
• 1. Cells are maintained in culture medium, splitting cells when they reach 80-90% confluence • 2. To test compounds, 10,000 cells/well are plated to opaque 96 cell culture plate in 100 ul/well plating medium, culture for overnight at 37° C. in cell culture incubator • 3. Carefully remove plating medium, then add 80 ul/well of pre-warmed assay medium, add 10 ul/well testing compound (final concentration at) 1000 nM, 200 nM, 40 nM, 8 nM, 1.6 nM, and 0.32 nM), incubate at 37° C. for 30 minutes • 4. Add 10 ul/well freshly prepared DHT (final concentration at 100 pM) to each well, incubate at 37° C. for 17 hr (overnight) • 5.
The results are reported as the mean of multiple tests as described below (the numbers of tests are indicated in the footnote). N.D. denotes that the compound was not tested.

Compound	IC50 [nM]
N#Cc1ccc(OC2CCCC(O)C2)cc1Cl (stereo not shown) [Example 26, 2-Chloro-4-(3-hydroxy-cyclohexyloxy)-benzonitrile]	46
C[C@H]1CC[C@@H](Oc2ccc(C#N)c(Cl)c2)CC1 [Example 31, 2-Chloro-4-(4-cis-methyl-cyclohexyloxy)-benzonitrile]	66
C=CCO[C@H]1CCCC[C@@H]1Oc1ccc(C#N)c(C(F)(F)F)c1 [Example 71, (1S,2S)-4-(2-Allyloxy-cyclohexyloxy)-2-trifluoromethyl-benzonitrile]	23

Same assay, conditions: MDA-MB453-MMTV clone 54-19 cells, 100 pM DHT, 17 hr; mean of multiple tests; read-out: AR Cell IC50

Compound	IC50 [nM]
CCC1CCCCC1Oc1ccc(C#N)c(Cl)c1 (stereo not shown) [Example 27, 2-Chloro-4-(2-ethyl-cyclohexyloxy)-benzonitrile]	330
C[C@@H]1CCCC[C@@H]1Oc1ccc(C#N)c(Cl)c1 [Example 40, (1S,2R)-2-Chloro-4-(2-methyl-cyclohexyloxy)-benzonitrile]	114
C[C@H]1CCCC[C@@H]1Oc1ccc(C#N)c(Cl)c1 [Example 41, (1S,2S)-2-Chloro-4-(2-methyl-cyclohexyloxy)-benzonitrile]	46
N#Cc1ccc(OC2CCCCCC2)c(Cl)c1 [Example 43, 3-Chloro-4-cycloheptyloxy-benzonitrile]	12
N#Cc1ccc(OC2CCCCC2)cc1Cl [Example 45, 2-Chloro-4-cyclohexyloxy-benzonitrile]	147
N#Cc1ccc(OC2CCCC2)cc1Cl [Example 46, 2-Chloro-4-cyclopentyloxy-benzonitrile]	18
CC(C)[C@H]1CC[C@H](C)C[C@@H]1Oc1ccc(C#N)c(Cl)c1 [Example 47, (1S,2R,5S)-2-Chloro-4-(2-isopropyl-5methyl-cyclohexyloxy)-benzonitrile]	750
C=C(C)[C@H]1CC[C@H](C)[C@@H](Oc2ccc(C#N)c(Cl)c2)C1 [Example 49, (1S,2S,5S)-2-Chloro-4-(5-isopropenyl-2-methyl-cyclohexyloxy)-benzonitrile]	49
N#Cc1ccc(O[C@@H]2CCCC[C@H]2C#N)cc1Cl [Example 50, (1R,2S)-2-Chloro-4-(2-cyano-cyclohexyloxy)-benzonitrile]	202
CC1CCCC(Oc2ccc(C#N)c(Cl)c2)C1C (stereo not shown) [Example 52, 2-Chloro-4-(2,3-dimethyl-cyclohexyloxy)-benzonitrile]	308
CC1CCCC(C)C1Oc1ccc(C#N)c(Cl)c1 (stereo not shown) [Example 53, 2-Chloro-4-(2,6-dimethyl-cyclohexyloxy)-benzonitrile]	> 1000
N#Cc1ccc(O[C@H]2CCCC[C@@H]2c2ccccc2)cc1Cl [Example 55, (1S,2R)-2-Chloro-4-(2-phenyl-cyclohexyloxy)-benzonitrile]	421
N#Cc1ccc(OC2CC3CCC2C3)cc1Cl (stereo not shown) [Example 62, 4-(Bicyclo[2.2.1]hept-2-yloxy)-2-chloro-benzonitrile]	< 0.32
C[C@H]1CCC[C@@H]1Oc1ccc(C#N)c(Cl)c1 [Example 67, (1S,2S)-2-Chloro-4-(2-methyl-cyclopentyloxy)-benzonitrile]	< 0.32
N#Cc1ccc(OC2CCC2)cc1Cl [Example 68, 2-Chloro-4-cyclobutyloxy-benzonitrile]	103

Test system: not given
Assay: not given
Conditions: after 7 years of treatment; cited from earlier work

Compound	Increase in spinal BMD [%]
NCCCC(O)(P(=O)(O)O)P(=O)(O)O [alendronate]	≤ 11
